Source: article PMC10574767, “Extractives from Artemisia afra with Anti-Bacterial and Anti-Fungal Properties” (Plants, 2023)
≈ marks a conversion by molar mass, not a printed value.

Experiments:
Candida albicans = test system: Candida albicans; set-up: method as in PMID 19844829, PMID 35453556; conditions: cited from earlier work
[1] = test system: Candida albicans ATCC 10231; test: Serial dilution microplate MIC (fungi); type: cell-based; conditions: Table 2
Description: The MIC value of the plant extracts and isolated compounds against one fungal and five bacterial strains (Salmonella Typhimurium ATCC 39183, Escherichia coli ATCC 25922, Pseudomonas aeruginosa ATCC 27853, Staphylococcus aureus ATCC 29213, Enterococcus faecalis ATCC 29212, and fungi culture, Candida albicans ATCC 10231) was assessed in triplicate using the serial dilution microplate method; acetone and DMSO were used as solvents. Bacterial cultures were grown in Mueller Hinton broth (Sigma Aldrich, St. Louis, MO, USA) overnight and adjusted to McFarland standard 1 (1 × 10^8 CFU/mL). Then, 100 µL of samples were transferred into the first well of a sterile 96-well microtiter plate, which contained 100 µL of water and a 1:1 serial dilution with sterilized distilled water was carried out. In each well, 100 µL of appropriately adjusted fungal or bacterial cultures were added, and the bacteria were subjected to final concentrations of 250–3.9 μg/mL for pure compounds and 2.5–0.02 mg/mL for crude extracts. Amphotericin-B and Gentamicin (Virbac, Carros, France) served as positive controls for fungi and bacteria, respectively. For sterility, water served as control, while acetone served as a negative control. The microplates were then incubated for 24 h at 37 °C. Following incubation, 40 µL of 0.2 mg/mL p-iodonitrotetrazolium violet (INT, Sigma Aldrich) dissolved in water (hot) was added to the wells before being incubated at 37 °C for another 2 h. In the case of fungi, the INT was added before incubation. The MIC was measured visually as the lowest concentration of the compounds/extracts that inhibited proliferation.

HeLa = test system: HeLa; set-up: method as in PMID 35453556, PMID 21294076; conditions: cited from earlier work
Aspergillus niger = test system: Aspergillus niger; set-up: method as in PMID 19844829, PMID 35453556; conditions: cited from earlier work
Staphylococcus aureus = test system: Staphylococcus aureus; set-up: method as in ref 36 = [36]; 36. Koay Y.C. Wong K.C. Hasnah O. Ibrahim E.M.S. Mohammad Z.A. Chemical constituents and biological activities of Strobilanthes crispus L. Rec. Nat. Prod. 2013 7 59 64; conditions: cited from earlier work
[2] = test system: Aspergillus niger, Aspergillus flavus, Rhizoctonia phaseoli, and Penicillium chrysogenum; set-up: method as in ref 38 = [38]; 38. ur Rahman U. Durrani S. Ubaidullah S.A. ur Rahman S. Anti-pyretic activity of taraxerol acetate KJMS 2016 9 165; conditions: 1 mg/disc; cited from earlier work
C. albicans = test system: C. albicans; set-up: method as in ref 35 = [35]; 35. Naika H.R. Krishna V. Harish B.G. Khadeer Ahamed B.M. Mahadevan K.M. Antimicrobial Activity of Bioactive Constituents Isolated from the Leaves of Naravelia zeylanica (L.) DC Int. J. Res. Pharm. Bi; conditions: cited from earlier work
Klebsiella pneumoniae = test system: Klebsiella pneumoniae; set-up: method as in ref 36 = [36]; 36. Koay Y.C. Wong K.C. Hasnah O. Ibrahim E.M.S. Mohammad Z.A. Chemical constituents and biological activities of Strobilanthes crispus L. Rec. Nat. Prod. 2013 7 59 64; conditions: cited from earlier work
MRC-5 = test system: MRC-5; set-up: method as in PMID 35453556, PMID 21294076; conditions: cited from earlier work

Compound: CC1(C)CC[C@]2(C)CC=C3[C@]4(C)CC[C@H]5C(C)(C)[C@@H](O)CC[C@]5(C)[C@H]4CC[C@@]3(C)[C@@H]2C1 [Compound 3β-Taraxerol, 3β-taraxerol]
- MIC Candida albicans (Candida albicans): 25 µg/mL (≈ 58.6 µM)
- MIC ([1]; Candida albicans, ATCC10231, isolated compounds, read-out: Minimum inhibitory concentration (MIC) C. albicans): 250 µg/mL (≈ 586 µM)
- Selectivity index C. albicans ([1]; in brackets, Vero LC50 vs MIC): > 0.8
- Cytotoxicity HeLa (HeLa): inactive
- MIC Aspergillus niger (Aspergillus niger): 100 µg/mL (≈ 234 µM)
- MIC Staphylococcus aureus (Staphylococcus aureus): 15.6 µg/mL (≈ 36.6 µM)
- Anti-fungal activity against four fungi [2]: weak anti-fungal activities
- Activity against C. albicans (C. albicans): no activity
- MIC Klebsiella pneumoniae (Klebsiella pneumoniae): 62.5 µg/mL (≈ 146 µM)
- Cytotoxicity MRC-5 (MRC-5): inactive
